Test results as given in US9797002B2, “Methods and kits for genome-wide methylation of GpC sites and genome-wide determination of chromatin structure” (UNIVERSITY OF SOUTHERN CALIFORNIA, priority 2010, dated 2017).

Tested on: LD419
Test: RT-PCR analysis of L1-MET reactivation after 5-Aza-CdR treatment
Assay type: cell-based, human
Settings: LD419 fibroblast cell line, 1 or 3 μM 5-Aza-CdR for 24 hours (day 3 after treatment), β-actin control
Description: (A) The functional domains of MET include the signal peptide (SP), sema domain at the N-terminus, the PSI domain, IPT repeats, the transmembrane domain (TM), and the kinase domain at the C-terminus. The structure of truncated MET proteins 1 and 2 are shown, encoded by transcripts derived from placenta (GenBank accession no. BX334980) and a bladder carcinoma cell line (BF208095), respectively. (B) The two […] transcripts, truncated L1-MET-1 (T-MET-1) and truncated L1-MET-2 (T-MET-2), were cloned into a pMEV expression vector with 2 HA tags fused at the N-terminal. Hela cells were transfected with either the empty pMEV vector, pMEV T-MET-1, or pMEV T-MET-2 and protein was extracted after 48 hours. The expression of truncated MET-1 (90 kDa) and truncated MET-2 (60 kDa) was detected by western blot using an HA antibody. (C) Results of 5′RACE reveal the start site for L1-MET within the L1 element. The transcriptional start site of L1-MET was confirmed by 5′RACE in the T24 cell line which expressed L1-MET. The underlined sequence is located inside of the LINE-1. […] Found at: doi:10.1371/journal.pgen. 1000917.s002 (1.22 MB TIF)
The transcript from the L1-MET anti-sense promoter contains its own exons 1 and 2, referred to as L1-MET exon 1 and L1-MET exon 2 (FIG. 7A). […]
Quantitative RT-PCR. Expression was determined by quantitative RT-PCR as described previously.

In the case of Nc1ncn([C@H]2C[C@H](O)[C@@H](CO)O2)c(=O)n1 [5-aza-deoxycytidine], the “expression (reactivation) of the L1-MET transcript” value is reported as “lead to expression of L1-MET” and the “expression (reactivation) of the L1-MET transcript” value (listed as 5-Aza-CdR) is reported as “reactivation of L1-MET”.
